Tests used:
[1] = target: T1, PI3Kα (wild-type), P110/P85α (Homo sapiens, UniProt P42336); assay: PI3 Kinase TR-FRET assay, PI3Kα (wild-type); format: biochemical
T1 construct: made in house; host or cells: SF9 insect cells
Summary of the method: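 TR-FRET read-out of PIP3 formation via biotin-PIP3 displacement (665/615 nm ratio) gave IC50 curves. Enzyme: 5 ng wild-type P110/P85α from Sf9 cells, 60 min RT with compound and PIP2 (MgCl2 40 mM, DTT 5 mM), then 30 min RT kinase reaction at 10 μM ATP and 10 μM PIP2.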

[2] = target: T2, mTOR kinase (Homo sapiens, UniProt P42345); assay: mTOR kinase TR-FRET assay; format: biochemical; conditions: read-out: mTO R
T2 construct: purchased Millipore, USA
Summary of the method: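 TR-FRET read-out (340 nm excitation, 615/665 nm emission) of Thr389 phosphorylation of a ULight-labeled p70 S6K peptide (50 nM) by mTOR, 20 μM ATP, 60 min room temperature after 60 min compound preincubation. Buffer HEPES pH 7.5 with MnCl2, EGTA; IC50 by sigmoidal dose-response.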

[3] = tested on: pS6RP(S235/236), PC3 cells; assay: In-cell Western assay, pS6RP(S235/236) in PC3 cells; format: cell-based, human
Procedure: Cells from human prostate cancer cell line PC3 (American Type Culture Collection (ATCC), Manassas, Va. 20108 USA) were seeded at an optimal density of 22,000 cell/well in 96-well plates containing Ham's F12K medium (90 μL) and incubated overnight. The compound dilutions were carried out in 100% DMSO followed by a dilution in the medium. Test compounds were added in serial dilutions to the wells and incubated for 2 h. The cells were washed and fixed with 4% paraformaldehyde. After incubation at room temperature for 1 h in the dark, blocking was done for 2 h at room temperature. Primary antibodies for phosphorylated (p) AKT(5473) (phosphorylated at serine 473), pAKT(T308) (phosphorylated at threonine 308) and for pS6RP(S235/236) (phosphorylated at serine 235/236) (commercially available from Cell Signaling Technology®, whose protocol was followed for the in-cell western assay, were diluted to the required concentration and added to the corresponding wells followed by overnight incubation at 4° C. Eu-labeled rabbit (PE) (Perkin-Elmer USA catalog #AD0106) secondary antibody was added and incubated for 2 h at room temperature. Delfia® enhancement solution (cat #1244-105, Perkin Elmer USA) was subsequently added to the plate before taking the reading at 615 nm with excitation wavelength of 340 nm, after which 0.5 μg/mL of Hoechst® 33258 dye (Catalog #86140-5, Sigma) was added to the plate and fluorescence emission was read at 460 nm with 355 nm excitation, to evaluate the correction factor. IC50 values were calculated using a sigmoidal dose-response curve fit in GraphPad Prism® v5 software.

[4] = tested on: PC3 cells; assay: XTT assay for cell viability, PC3 cells; format: cell-based, human; conditions: Homo sapiens, PC-3, cell viability
Summary of the method: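 PC3 cells seeded at 1000 cells/well, grown 24 h, then exposed to serial dilutions of compound for 96 h. Viability read by XTT dye at 37° C, absorbance 465 nm. EC50 from sigmoidal dose-response fit.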

[5] = Homo sapiens, PC-3, In-cell Western

T1 sequence (P42336 whole entry): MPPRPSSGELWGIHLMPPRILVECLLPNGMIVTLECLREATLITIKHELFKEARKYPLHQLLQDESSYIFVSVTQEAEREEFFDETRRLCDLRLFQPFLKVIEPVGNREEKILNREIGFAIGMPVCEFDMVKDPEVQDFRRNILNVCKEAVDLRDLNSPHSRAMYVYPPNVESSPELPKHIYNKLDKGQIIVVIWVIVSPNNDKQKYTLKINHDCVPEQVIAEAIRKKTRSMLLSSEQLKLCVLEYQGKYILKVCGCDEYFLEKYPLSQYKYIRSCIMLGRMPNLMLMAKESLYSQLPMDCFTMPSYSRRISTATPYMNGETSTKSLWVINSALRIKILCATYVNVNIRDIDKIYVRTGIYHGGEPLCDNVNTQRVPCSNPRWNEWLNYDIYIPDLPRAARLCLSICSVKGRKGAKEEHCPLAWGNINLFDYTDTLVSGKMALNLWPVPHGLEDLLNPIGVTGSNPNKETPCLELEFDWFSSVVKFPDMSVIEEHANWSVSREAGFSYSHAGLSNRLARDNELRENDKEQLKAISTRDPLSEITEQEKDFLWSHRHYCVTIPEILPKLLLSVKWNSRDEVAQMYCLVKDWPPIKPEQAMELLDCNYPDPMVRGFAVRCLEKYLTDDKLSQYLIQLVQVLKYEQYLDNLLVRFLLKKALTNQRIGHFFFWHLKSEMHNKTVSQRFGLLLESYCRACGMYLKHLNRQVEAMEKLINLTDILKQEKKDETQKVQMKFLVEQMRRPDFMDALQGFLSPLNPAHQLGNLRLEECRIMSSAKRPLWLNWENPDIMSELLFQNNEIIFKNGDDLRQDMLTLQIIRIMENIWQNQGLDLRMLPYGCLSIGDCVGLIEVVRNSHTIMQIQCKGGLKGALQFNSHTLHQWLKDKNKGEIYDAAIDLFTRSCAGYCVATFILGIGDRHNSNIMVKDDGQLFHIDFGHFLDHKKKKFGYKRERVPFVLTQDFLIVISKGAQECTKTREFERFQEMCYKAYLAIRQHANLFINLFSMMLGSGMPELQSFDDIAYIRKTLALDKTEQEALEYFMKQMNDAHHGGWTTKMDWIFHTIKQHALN
T1 sequence (P27986 whole entry partner): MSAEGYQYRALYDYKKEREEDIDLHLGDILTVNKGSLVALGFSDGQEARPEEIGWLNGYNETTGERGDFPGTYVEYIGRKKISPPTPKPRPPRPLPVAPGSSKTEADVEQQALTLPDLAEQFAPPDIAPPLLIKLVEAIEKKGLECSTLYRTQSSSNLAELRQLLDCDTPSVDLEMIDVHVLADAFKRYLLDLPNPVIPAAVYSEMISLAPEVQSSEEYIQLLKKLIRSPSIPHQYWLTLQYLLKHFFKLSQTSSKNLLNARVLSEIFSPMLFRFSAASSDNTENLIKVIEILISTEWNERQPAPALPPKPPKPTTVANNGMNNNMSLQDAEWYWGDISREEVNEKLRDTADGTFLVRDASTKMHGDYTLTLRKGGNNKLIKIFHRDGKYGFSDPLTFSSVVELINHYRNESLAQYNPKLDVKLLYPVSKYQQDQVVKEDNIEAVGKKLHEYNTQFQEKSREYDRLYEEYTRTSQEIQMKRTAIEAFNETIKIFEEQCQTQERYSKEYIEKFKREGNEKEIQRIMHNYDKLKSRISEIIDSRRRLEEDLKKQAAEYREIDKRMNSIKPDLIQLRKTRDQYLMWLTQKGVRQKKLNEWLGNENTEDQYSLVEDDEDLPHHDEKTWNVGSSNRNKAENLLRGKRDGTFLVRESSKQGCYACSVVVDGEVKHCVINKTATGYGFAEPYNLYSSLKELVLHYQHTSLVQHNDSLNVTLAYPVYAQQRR

| Structure (SMILES) | IC50 [1] | IC50 [2] | IC50 ([3]; In-cell Western) | IC50 [3, 5] | IC50 [4] |
| --- | --- | --- | --- | --- | --- |
| NC1CCN(C(=O)c2ccc(NC(=O)Nc3ccc(-c4nc(N5CCOCC5)c5ccc(-c6cncnc6)cc5n4)cc3F)cc2)C1 (stereo in doubt) [Example 208, (S)-1-(4-(3-aminopyrrolidine-1-carbonyl)phenyl)-3-(2-fluoro-4-(4-morpholino-7-(pyrimidin-5-yl)quinazolin-2-yl)phenyl)urea] | < 50 nM | < 50 nM |  | 201 to 10000 nM | 201 to 10000 nM |
| CN(C)C1CCN(C(=O)c2ccc(NC(=O)Nc3ccc(-c4nc(N5CCOCC5)c5ncc(-c6cccnc6F)cc5n4)cc3F)cc2)C1 (stereo in doubt) [Example 213, (S)-1-(4-(3-(dimethylamino)pyrrolidine-1-carbonyl)phenyl)-3-(2-fluoro-4-(7-(2-fluoropyridin-3-yl)-4-morpholino-pyrido[3,2-d]pyrimidin-2-yl)phenyl)urea] | < 50 nM | < 50 nM |  | 201 to 10000 nM | 201 to 10000 nM |
| Cc1noc(C)c1-c1ccc2c(N3CCOCC3)nc(-c3ccc(NC(=O)Nc4ccc(C(=O)N5CCC(N(C)C)C5)cc4)cc3)nc2c1 (stereo in doubt) [Example 220, (S)-1-(4-(3-(dimethylamino)pyrrolidine-1-carbonyl)phenyl)-3-(4-(7-(3,5-dimethylisoxazol-4-yl)-4-morpholino-quinazolin-2-yl)phenyl)urea] | 50 to 200 nM | < 50 nM |  | 201 to 10000 nM | 201 to 10000 nM |
| CN(C)C1CCN(C(=O)c2ccc(NC(=O)Nc3ccc(-c4nc(N5CCOCC5)c5ccc(C(C)(C)O)cc5n4)cc3)cc2)C1 (stereo in doubt) [Example 289, (S)-1-(4-(3-(dimethylamino)pyrrolidine-1-carbonyl)phenyl)-3-(4-(7-(2-hydroxypropan-2-yl)-4-morpholino-quinazolin-2-yl)phenyl)urea] | 50 to 200 nM | < 50 nM |  | 201 to 10000 nM | 201 to 10000 nM |
| CN(C)C(=O)c1ccc(NC(=O)Nc2ccc(-c3nc(N4CCOCC4)c4ccc(C(C)(C)O)cc4n3)cc2)cc1 [Example 16, 4-(3-(4-(7-(2-hydroxypropan-2-yl)-4-morpholino-quinazolin-2-yl)phenyl)ureido)-N,N-dimethyl-benzamide] | < 50 nM | < 50 nM |  | 201 to 10000 nM | 201 to 10000 nM |
| Cc1ccc(-c2ccc3c(N4CCOCC4)nc(-c4ccc(NC(=O)Nc5ccc(C(=O)N6CC[C@@H](N(C)C)C6)cc5)cc4)nc3c2)o1 [Example 196, (R)-1-(4-(3-(dimethylamino)pyrrolidine-1-carbonyl)phenyl)-3-(4-(7-(5-methylfuran-2-yl)-4-morpholino-quinazolin-2-yl)phenyl)urea] | 50 to 200 nM | < 50 nM |  | < 100 nM |  |
| N[C@@H]1CCN(C(=O)c2ccc(NC(=O)Nc3ccc(-c4nc(N5CCOCC5)c5ccc(-c6cncnc6)cc5n4)cc3F)cc2)C1 [Example 209, (R)-1-(4-(3-aminopyrrolidine-1-carbonyl)phenyl)-3-(2-fluoro-4-(4-morpholino-7-(pyrimidin-5-yl)quinazolin-2-yl)phenyl)urea] | < 50 nM | < 50 nM | 201 to 10000 nM |  |  |
| CN(C)C(=O)c1ccc(NC(=O)Nc2ccc(-c3nc(N4CCOCC4)c4ccc(-c5ccco5)cc4n3)cc2)cc1F [Example 265, 2-fluoro-4-(3-(4-(7-(furan-2-yl)-4-morpholino-quinazolin-2-yl)phenyl)ureido)-N,N-dimethyl-benzamide] | 50 to 200 nM | 50 to 200 nM |  |  | < 100 nM |
| CN(C)C(=O)c1ccc(NC(=O)Nc2ccc(-c3nc(N4CCOCC4)c4ccc(-c5ccc(CO)o5)cc4n3)c(F)c2)cc1 [Example 274, 4-(3-(3-fluoro-4-(7-(5-(hydroxymethyl)furan-2-yl)-4-morpholino-quinazolin-2-yl)phenyl)ureido)-N,N-dimethyl-benzamide] | < 50 nM | 50 to 200 nM |  |  | 201 to 10000 nM |
| CC(O)c1ccc(-c2ccc3c(N4CCOCC4)nc(-c4ccc(NC(=O)Nc5ccc(C(=O)N(C)C)cc5)cc4F)nc3c2)o1 (centres unmarked) [Example 275, 4-(3-(3-fluoro-4-(7-(5-(1-hydroxyethyl)furan-2-yl)-4-morpholino-quinazolin-2-yl)phenyl)ureido)-N,N-dimethyl-benzamide] | 50 to 200 nM | < 50 nM |  |  | 201 to 10000 nM |
| CN(C)C(=O)c1ccc(NC(=O)Nc2ccc(-c3nc(N4CCOCC4)c4ccc(-c5cncnc5)cc4n3)c(F)c2F)cc1 [Example 280, 4-(3-(2,3-difluoro-4-(4-morpholino-7-(pyrimidin-5-yl)quinazolin-2-yl)phenyl)ureido)-N,N-dimethyl-benzamide] | 50 to 200 nM | < 50 nM |  |  | < 100 nM |
| CN(C)C(=O)c1ccc(NC(=O)Nc2ccc(-c3nc(N4CCOCC4)c4ccc(-c5ccco5)cc4n3)c(F)c2F)cc1 [Example 282, -(3-(2,3-difluoro-4-(7-(furan-2-yl)-4-morpholino-quinazolin-2-yl)phenyl)ureido)-N,N-dimethyl-benzamide] | 50 to 200 nM | 201 to 10000 nM |  |  | < 100 nM |

Next, values leading:

| IC50 [1] | IC50 [2] | IC50 ([3]; In-cell Western) | IC50 [3, 5] | IC50 [4] | Structure (SMILES) |
| --- | --- | --- | --- | --- | --- |
| < 50 nM | < 50 nM | 201 to 10000 nM |  |  | CN(C)C1CCN(C(=O)c2ccc(NC(=O)Nc3ccc(-c4nc(N5CCOCC5)c5ncc(-c6cnn(C)c6)cc5n4)cc3)cc2)C1 (stereo in doubt) [Example 185, (S)-1-(4-(3-(dimethylamino)pyrrolidine-1-carbonyl)phenyl)-3-(4-(7-(1-methyl-1H-pyrazol-4-yl)-4-morpholino-pyrido[3,2-d]pyrimidin-2-yl)phenyl)urea] |
| < 50 nM | < 50 nM | 201 to 10000 nM |  |  | CN(C)C1CCN(C(=O)c2ccc(NC(=O)Nc3ccc(-c4nc(N5CCOCC5)c5ccc(-c6cncnc6)cc5n4)cc3)cc2)C1 (stereo in doubt) [Example 188, (S)-1-(4-(3-(dimethylamino)pyrrolidine-1-carbonyl)phenyl)-3-(4-(4-morpholino-7-(pyrimidin-5-yl)quinazolin-2-yl)phenyl)urea] |
| < 50 nM | < 50 nM |  | 201 to 10000 nM | 201 to 10000 nM | CN(C)C1CCN(C(=O)c2ccc(NC(=O)Nc3ccc(-c4nc(N5CCOCC5)c5cc(F)c(-c6cccnc6)cc5n4)cc3)cc2)C1 (stereo in doubt) [Example 198, (S)-1-(4-(3-(dimethylamino)pyrrolidine-1-carbonyl)phenyl)-3-(4-(6-fluoro-4-morpholino-7-(pyridin-3-yl)quinazolin-2-yl)phenyl)urea] |
| < 50 nM | < 50 nM |  | 201 to 10000 nM | 201 to 10000 nM | CN(C)C1CCN(C(=O)c2ccc(NC(=O)Nc3ccc(-c4nc(N5CCOCC5)c5ncc(-c6cncnc6)cc5n4)cc3)cc2)C1 (stereo in doubt) [Example 199, (S)-1-(4-(3-(dimethylamino)pyrrolidine-1-carbonyl)phenyl)-3-(4-(4-morpholino-7-(pyrimidin-5-yl)pyrido[3,2-d]pyrimidin-2-yl)phenyl)urea] |
| < 50 nM | < 50 nM |  | 201 to 10000 nM | < 100 nM | CN(C)C1CCN(C(=O)c2ccc(NC(=O)Nc3ccc(-c4nc(N5CCOCC5)c5ccc(-c6cncnc6)cc5n4)cc3F)cc2)C1 (stereo in doubt) [Example 207, (S)-1-(4-(3-(dimethylamino)pyrrolidine-1-carbonyl)phenyl)-3-(2-fluoro-4-(4-morpholino-7-(pyrimidin-5-yl)quinazolin-2-yl)phenyl)urea] |
| < 50 nM | < 50 nM | 201 to 10000 nM |  |  | CN(C)C1CCN(C(=O)c2ccc(NC(=O)Nc3ccc(-c4nc(N5CCOCC5)c5ncc(-c6cnn(C)c6)cc5n4)cc3F)cc2)C1 (stereo in doubt) [Example 210, (S)-1-(4-(3-(dimethylamino)pyrrolidine-1-carbonyl)phenyl)-3-(2-fluoro-4-(7-(1-methyl-1H-pyrazol-4-yl)-4-morpholino-pyrido[3,2-d]pyrimidin-2-yl)phenyl)urea] |
| < 50 nM | < 50 nM | 201 to 10000 nM |  |  | CN(C)[C@@H]1CCN(C(=O)c2ccc(NC(=O)Nc3ccc(-c4nc(N5CCOCC5)c5cc(F)c(-c6cccnc6)cc5n4)cc3)cc2)C1 [Example 200, (R)-1-(4-(3-(dimethylamino)pyrrolidine-1-carbonyl)phenyl)-3-(4-(6-fluoro-4-morpholino-7-(pyridin-3-yl)quinazolin-2-yl)phenyl)urea] |

From patent US9115092B2, “Substituted quinazoline and pyrido-pyrimidine derivatives” (Asana Biosciences, LLC, priority 2010, dated 2015)
